# Experimental data reported in US9777003B2, “Tricyclic heterocycles as bet protein inhibitors” (Incyte Corporation, priority 2013, dated 2017).
# Counter-ions that a name gives are not always drawn.
# How the values were obtained:
# BRD4-BD1 = BRD4-BD1 (Homo sapiens (Human), UniProt O60885); assay: BRD4 AlphaScreen assay, BRD4-BD1; type: binding; conditions: biotin-labeled tetra-acetylated histone H4 peptide, 75 min, room temperature, read-out: BRD4 BD-1 enzyme IC50
# How it was run: (§1)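 Displacement of 50 nM biotinylated tetra-acetylated H4 peptide (H4Ac4) from BRD4-BD1 (3.8 nM) or BRD4-BD2 (20 nM) in HEPES pH 7.4, 100 mM NaCl, CHAPS, BSA; 75 min at room temperature. Streptavidin donor/GSH acceptor beads were added for a further 75 min in the dark; IC50 from percent control activity versus log concentration.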
# BRD4-BD2 = BRD4-BD2 (Homo sapiens (Human), UniProt O60885); assay: BRD4 AlphaScreen assay, BRD4-BD2; type: binding; conditions: biotin-labeled tetra-acetylated histone H4 peptide, 75 min, room temperature, read-out: BRD4 BD-2 enzyme IC50
# How it was run: as §1
SMILES,IC50 (BRD4-BD1) [µM],IC50 (BRD4-BD2) [µM]
"Cc1nnc2ccc3c(cc(C(=O)NCc4ccncc4)n3Cc3ccccc3)n12 [Example 126, 6-Benzyl-1-methyl-N-(pyridin-4-ylmethyl)-6H-pyrrolo[2,3-e][1,2,4]triazolo[4,3-a]pyridine-7-carboxamide bis(trifluoroacetate) Salt]",0.1 to 1,0.1 to 1
"Cc1cc2c(cc(NC3CCN(C(=O)OC(C)(C)C)CC3)c3nnc(C)n32)n1Cc1ccccc1 [Example 214, tert-Butyl 4-[(6-benzyl-1,7-dimethyl-6H-pyrrolo[2,3-e][1,2,4]triazolo[4,3-a]pyridin-4-yl)amino]piperidine-1-carboxylate]",0.1 to 1,≤ 0.1
"Cc1cc2c(cc(NC3CCNCC3)c3nnc(C)n32)n1Cc1ccccc1 [Example 206, 6-Benzyl-1,7-dimethyl-N-piperidin-4-yl-6H-pyrrolo[2,3-e][1,2,4]triazolo[4,3-a]pyridin-4-amine]",≤ 0.1,≤ 0.1
"Cc1cc2c(ccc3nnc(C)n32)n1Cc1ccc(CN(C)C)cc1 [Example 53, 1-{4-[(1,7-dimethyl-6H-pyrrolo[2,3-e][1,2,4]triazolo[4,3-a]pyridin-6-yl)methyl]phenyl}-N,N-dimethylmethanamine]",0.1 to 1,0.1 to 1
"Cc1nnc2ccc3c(cc(-c4ccn(CCC(N)=O)n4)n3Cc3ccccc3)n12 [Example 98, 3-[3-(6-benzyl-1-methyl-6H-pyrrolo[2,3-e][1,2,4]triazolo[4,3-a]pyridin-7-yl)-1H-pyrazol-1-yl]propanamide]",≤ 0.1,≤ 0.1
"Cc1cc2c(ccc3nnc(C)n32)n1Cc1cccc(CN2CCCCC2)c1 [Example 46, 1,7-dimethyl-6-[3-(piperidin-1-ylmethyl)benzyl]-6H-pyrrolo[2,3-e][1,2,4]triazolo[4,3-a]pyridine]",≤ 0.1,≤ 0.1
"Cc1nnc2ccc3c(cc(-c4ncco4)n3Cc3ccccc3)n12 [Example 143, 6-benzyl-1-methyl-7-(1,3-oxazol-2-yl)-6H-pyrrolo[2,3-e][1,2,4]triazolo[4,3-a]pyridine Trifluoroacetate Salt]",≤ 0.1,≤ 0.1
"Cc1cc2c(ccc3nnc(C)n32)n1Cc1cccc(C#N)c1 [Example 20, 3-[(1,7-dimethyl-6H-pyrrolo[2,3-e][1,2,4]triazolo[4,3-a]pyridine-6-yl)methyl]benzonitrile]",0.1 to 1,≤ 0.1
"Cc1nnc2ccc3c(cc(C4CCNC4)n3Cc3ccccc3)n12 (racemic) [Example 186, 6-Benzyl-1-methyl-7-pyrrolidin-3-yl-6H-pyrrolo[2,3-e][1,2,4]triazolo[4,3-a]pyridine bis(trifluoroacetate) Salt]",1 to 10,0.1 to 1
"CCNc1cc2c(cc(C)n2Cc2ccccc2)n2c(C)nnc12 [Example 259, 6-Benzyl-N-ethyl-1,7-dimethyl-6H-pyrrolo[2,3-e][1,2,4]triazolo[4,3-a]pyridin-4-amine]",≤ 0.1,≤ 0.1
"COc1cc2c(cc(C)n2Cc2ccccc2)n2c(C)nnc12 [Example 264, 6-Benzyl-4-methoxy-1,7-dimethyl-6H-pyrrolo[2,3-e][1,2,4]triazolo[4,3-a]pyridine]",0.1 to 1,0.1 to 1
"Cc1nnc2ccc3c(cnn3Cc3ccccc3)n12 [Example 112, 6-benzyl-1-methyl-6H-pyrazolo[3,4-e][1,2,4]triazolo[4,3-a]pyridine]",0.1 to 1,0.1 to 1
"Cc1nnc2ccc3c(cc(C(=O)N[C@H]4C[C@H](C#N)C4)n3Cc3ccccc3)n12 [Example 100, 6-benzyl-N-(trans-3-cyanocyclobutyl)-1-methyl-6H-pyrrolo[2,3-e][1,2,4]triazolo[4,3-a]pyridine-7-carboxamide]",≤ 0.1,≤ 0.1
"Cc1cc2c(cc(N[C@@H]3CCN(C(=O)OC(C)(C)C)C3)c3nnc(C)n32)n1Cc1ccccc1 [Example 149, tert-butyl (3R)-3-[(6-benzyl-1,7-dimethyl-6H-pyrrolo[2,3-e][1,2,4]triazolo[4,3-a]pyridin-4-yl)amino]pyrrolidine-1-carboxylate]",0.1 to 1,≤ 0.1
"Cc1cc2c(cc(NC3CCC(C#N)CC3)c3nnc(C)n32)n1Cc1ccccc1 (single isomer, unassigned) [Example 215 a, 4-[(6-benzyl-1,7-dimethyl-6H-pyrrolo[2,3-e][1,2,4]triazolo[4,3-a]pyridin-4-yl)amino]cyclohexanecarbonitrile Trifluoroacetate Salt]",0.1 to 1,≤ 0.1

# Further lines, results first:
IC50 (BRD4-BD1) [µM],IC50 (BRD4-BD2) [µM],SMILES
0.1 to 1,0.1 to 1,"Cc1nnc2ccc3c(cc(C(=O)N(C)C)n3Cc3ccccc3)n12 [Example 94, 6-benzyl-N,N,1-trimethyl-6H-pyrrolo[2,3-e][1,2,4]triazolo[4,3-a]pyridine-7-carboxamide]"
≤ 0.1,≤ 0.1,"Cc1cc2c(cc(N[C@H]3C[C@H](O)C3)c3nnc(C)n32)n1Cc1ccccc1 [Example 247, trans-3-(6-Benzyl-1,7-dimethyl-6H-pyrrolo[2,3-e][1,2,4]triazolo[4,3-a]pyridin-4-ylamino)cyclobutanol]"
0.1 to 1,≤ 0.1,"Cc1cc2c(cc(NC(=O)OC(C)(C)C)c3nnc(C)n32)n1Cc1ccccc1 [Example 248, tert-Butyl 6-benzy1-1,7-dimethyl-6H-pyrrolo[2,3-e][1,2,4]triazolo[4,3-a]pyridin-4-ylcarbamate]"
≤ 0.1,≤ 0.1,"CNC(=O)c1cc2c(ccc3nnc(C)n32)n1Cc1cccc(F)c1 [Example 102, 6-(3-fluorobenzyl)-N,1-dimethyl-6H-pyrrolo[2,3-e][1,2,4]triazolo[4,3-a]pyridine-7-carboxamide]"
≤ 0.1,≤ 0.1,"Cc1cc2c(cc(NC(N)=O)c3nnc(C)n32)n1Cc1cccc(F)c1F [Example 237, 1-(6-(2,3-Difluorobenzyl)-1,7-dimethyl-6H-pyrrolo[2,3-e][1,2,4]triazolo[4,3-a]pyridin-4-yl)urea]"
0.1 to 1,0.1 to 1,"CCCCC(c1ccccc1)n1c(C)cc2c1ccc1nnc(C)n12 (racemic) [Example 24, 1,7-dimethyl-6-(1-phenylpentyl)-6H-pyrrolo[2,3-e][1,2,4]triazolo[4,3-a]pyridine]"
0.1 to 1,≤ 0.1,"Cc1cc2c(cc(Nc3ccncc3)c3nnc(C)n32)n1Cc1ccccc1 [Example 255, 6-Benzyl-1,7-dimethyl-N-(pyridin-4-yl)-6H-pyrrolo[2,3-e][1,2,4]triazolo[4,3-a]pyridin-4-amine]"
0.1 to 1,≤ 0.1,"COC1CN(Cc2cccc(Cn3c(C)cc4c3ccc3nnc(C)n34)c2)C1 [Example 54, 6-{3-[(3-methoxyazetidin-1-yl)methyl]benzyl}-1,7-dimethyl-6H-pyrrolo[2,3-e][1,2,4]triazolo[4,3-a]pyridine]"
≤ 0.1,≤ 0.1,"CCNC(=O)c1cc2c(ccc3nnc(C)n32)n1Cc1cccc(Cl)c1 [Example 113, 6-(3-Chlorobenzyl)-N-ethyl-1-methyl-6H-pyrrolo[2,3-e][1,2,4]triazolo[4,3-a]pyridine-7-carboxamide Trifluoroacetate Salt]"
≤ 0.1,≤ 0.1,"Cc1cc2c(cc(NCCCN)c3nnc(C)n32)n1Cc1ccccc1 [Example 257, N1-(6-Benzyl-1,7-dimethyl-6H-pyrrolo[2,3-e][1,2,4]triazolo[4,3-a]pyridin-4-yl)propane-1,3-diamine]"
≤ 0.1,≤ 0.1,"CCN1CC(CC#N)(n2ccc(-c3cc4c(ccc5nnc(C)n54)n3Cc3cccc(Cl)c3)n2)C1 [Example 158, (3-{3-[6-(3-Chlorobenzyl)-1-methyl-6H-pyrrolo[2,3-e][1,2,4]triazolo[4,3-a]pyridin-7-yl]-1H-pyrazol-1-yl}-1-ethylazetidin-3-yl)acetonitrile bis(trifluoroacetate) Salt]"
≤ 0.1,≤ 0.1,"Cc1cc2c(ccc3nnc(C)n32)n1Cc1cccc(CNCCO)c1 [Example 36, 2-({3-[(1,7-dimethyl-6H-pyrrolo[2,3-e][1,2,4]triazolo[4,3-a]pyridin-6-yl)methyl]benzyl}amino)ethanol]"
≤ 0.1,≤ 0.1,"Cc1cc2c(cc(NCC3CC3)c3nnc(C)n32)n1Cc1ccccc1 [Example 228, 6-Benzyl-N-(cyclopropylmethyl)-1,7-dimethyl-6H-pyrrolo[2,3-e][1,2,4]triazolo[4,3-a]pyridin-4-amine]"
≤ 0.1,≤ 0.1,"CCNC(=O)c1cc2c(ccc3nnc(C)n32)n1Cc1cccc(CN2CCC2)c1 [Example 121, 6-[3-(Azetidin-1-ylmethyl)benzyl]-N-ethyl-1-methyl-6H-pyrrolo[2,3-e][1,2,4]triazolo[4,3-a]pyridine-7-carboxamide bis(trifluoroacetate) Salt]"
≤ 0.1,≤ 0.1,"Cc1nnc2ccc3c(cc(-c4ccn(CC(C)C#N)n4)n3Cc3ccccc3)n12 (racemic) [Example 88, 3-[3-(6-benzyl-1-methyl-6H-pyrrolo[2,3-e][1,2,4]triazolo[4,3-a]pyridin-7-yl)-1H-pyrazol-1-yl]-2-methylpropanenitrile Trifluoroacetate Salt]"
0.1 to 1,≤ 0.1,"Cc1cc2c(ccc3nnc(C)n32)n1Cc1cccc(C(N)=O)c1 [Example 30, 3-((1,7-dimethyl-6H-pyrrolo[2,3-e][1,2,4]triazolo[4,3-a]pyridin-6-yl)methyl)benzamide Trifluoroacetate Salt]"
0.1 to 1,≤ 0.1,"Cc1cc2c(ccc3nnc(C)n32)n1Cc1cccc(NC(N)=O)c1 [Example 44, N-{3-[(1,7-dimethyl-6H-pyrrolo[2,3-e][1,2,4]triazolo[4,3-a]pyridin-6-yl)methyl]phenyl}urea]"
